Reference: patent US10023652B2, “Method of targeting glycoproteins to treat cancer” (Board of Regents of the University of Nebraska, priority 2013, dated 2018)

Tested on: phosphorylation of Akt (S473)
Assay: Treatment of Capan-1 Cosmc KO cells with HER2 inhibitor, Akt phosphorylation by immunoblotting
Assay type: cell-based, human
Conditions: 24 h, FIG. 9B

Question: Which “phosphorylation of Akt” value does the source give for `COCC(=O)NC/C=C/c1ccc2ncnc(Nc3ccc(Oc4ccc(C)nc4)c(C)c3)c2c1` [CP724714] here?
Answer: decreases the phosphorylation of Akt in a dose dependent manner
